Experiments:
Type in all cases: cell-based, human
[1] = test system: P-TRKA Tyr674/675, P-TRKB Tyr706/707; test: Western blot of phosphorylated TRK in HepG2 cell lysates; conditions: HepG2, NTF3 (FIG. 9G-H)
Protocol: Human HepG2 and mouse AML12 cells were grown in 6-well plates. […] Lyophilized NTF3 was solubilized with sterile filtered PBS supplemented with 0.1% BSA, aliquoted and stored at −80° C. until use. […] Cell lysates were sonicated and centrifuged for 10 min at 18,800×g. Protein concentration of supernatants were determined by Direct Detect Spectrophotometer (MilliporeSigma, Burlington, MA).
(§1) For immunoblot analysis, 30-50 μg of protein diluted in LSD sample buffer (Invitrogen, Waltham, MA) were analyzed per SDS-PAGE (NuPAGE™, Invitrogen, Waltham, MA) using MOPS buffer or MES buffer (Invitrogen, Waltham, MA). Gels were stained with Coomassie (Bio-Safe Coomassie G-250 Stain, Bio-Rad, Hercules, CA) and transferred onto PVDF membranes using semi-dry blotting (Trans-Blot SD, Bio-Rad, Hercules, CA). Images were visualized on an Amersham™ Imager 680 (Cytiva, Marlborough, MA).

mTOR = test: Immunoblotting of mpPHH for P-S6RP and P-P70S6K (mTOR activation); conditions: NTF3
Protocol: Mouse passaged primary human hepatocytes. Mouse-passaged primary human hepatocytes (mpPHHs) were collected as previously described (Michailidis et al., Proc Natl Acad Sci USA. 2020; 117(3): 1678-1688) and cultured in hepatocyte culture media (CC-3198, Lonza, Basel, Switzerland) in collagen-coated chamber slides. Three days before treatment, mpPHH were incubated in William's E media (with L-glutamine). […] 5-15 images per treatment per experiment were randomly taken and EdU positive nuclei quantified.
Immunoblotting. […] Protein concentration of supernatants was determined by Direct Detect Spectrophotometer (MilliporeSigma, Burlington, MA). […] The protein concentration of supernatants was determined by a Direct Detect® spectrophotometer (MilliporeSigma, Burlington, MA). For immunoblot analysis, 10 to 50 μg of protein diluted in […] sample buffer (Invitrogen, Waltham, MA) were analyzed per SDS-polyacrylamide gel electrophoresis (NuPAGE™, Invitrogen, Waltham, MA) using Mops buffer or MES buffer (Invitrogen, Waltham, MA). […] Semi-quantitative band densitometry was performed using ImageJ software (version 1.53).

CCND1 = test: Western blot of CCND1 in HepG2 cell lysates
Protocol: Human HepG2 and mouse AML12 cells were grown in 6-well plates. Cells were treated with NTF3 (20 ng/ml) purchased from STEMCELL technologies, Vancouver, Canada (cat. 78074), R&D Systems, Minneapolis, MN (267-N3), Gibco, Waltham, MA (PHC7036) and/or Loxo-195 (5-10 nM) (Selleckchem, Houston, TX; S8636) in complete growth media without L-glutamine for 2 hours. Lyophilized NTF3 was solubilized with sterile filtered PBS supplemented with 0.1% BSA, aliquoted and stored at −80° C. until use. […] HepG2 and AML12 cells were collected on ice in PBS, centrifuged for 10 sec […] cell pellet homogenized in RIPA buffer containing inhibitors (Roche, Basel, Switzerland; complete Mini proteinase inhibitor, 1×HALT phosphatase inhibitors, Thermo Scientific, Waltham, MA; cat. 78428). Cell lysates were sonicated and centrifuged for 10 min at 18,800×g. Protein concentration of supernatants were determined by Direct Detect Spectrophotometer (MilliporeSigma, Burlington, MA).
as §1, with “Marlborough, MA). Semi-quantitative band densitometry was performed using ImageJ software (version 1.53).” for “Marlborough, MA).”

For “NTF3: neurotrophin-3, recombinant protein; HSC-derived hepatocyte mitogen, ligand of TRKA, TRKB, TRKC”, the “TRK phosphorylation (P-TRKA Tyr674/675, P-TRKB Tyr706/707)” value [1] was “Increased TRK phosphorylation”, the “levels of phosphorylated P-S6RP Ser240/244 and P-pS70SK Thr389” value (mTOR) was “increased levels” and the “CCND1 amounts, NTF3 from three different vendors” value (CCND1; HepG2 (FIG. 9K-L)) was “CCND1 amounts increased”. The CCND1 abundance (CCND1; HepG2, NTF3 20 ng/ml, 2 hours (FIG. 8I-J)) was “increased CCND1 abundance”.

Source: patent publication US20250346643A1, “TROPOMYOSIN KINASE RECEPTOR (TRK) LIGANDS AS THERAPEUTICS TO SUPPORT LIVER REGENERATION” (Vanderbilt University, priority 2024, published 2025)
